# Test results reported in patent US8987285B2, “Pharmaceutical compositions, dosage forms and new forms of the compound of formula (I), and methods of use thereof” (Portola Pharmaceuticals, Inc., priority 2010, dated 2015).
# Where two headings read alike, the source gives them in different places.
# Columns and labels:
# Type in all cases: physicochemical
# [1] = Super-saturation measurement (CheqSol): intrinsic and kinetic solubility; settings: for ratio super saturation: kinetic solubility divided by intrinsic solubility
# Excerpt: Anal. Chem. 2005, 77(4), 983-990; 2—Box, K J. Völgyi, G. Baka, E. Stuart, M. Takács-Novák, K. Corner, J E A. Equilibrium vs. kinetic measurements of aqueous solubility, and the ability of compounds to supersaturate in solution—a validation study. J. Pharm. Sci. 2006, 95, 1298-1307; 3—Sköld, C. Winiwarter, S. Johan Wernevik, J. Bergström, F. Engström, L. Allen, R. Box, K. Corner, J. Mole, J. Hallberg, A. Lennernäs, H. Lundstedt, T. Ungell, A-L. Karlén, A. Presentation of a Structurally Diverse and Commercially Available Drug Data Set for Correlation and Benchmarking Studies. J. Med. Chem. 2006, 49(23), 6660-6671;
# . Med. Chem.; 2007, 50 (5), 979-983; 5—Llinás, A. Box, K J. Burley, J C. Glen, R C. Goodman, J M. J. A new method for the reproducible generation of polymorphs: two forms of Sulindac with very different solubilities. […] 6—Box K et al, Using Measured pKa, Log P and Solubility to Investigate Supersaturation and Predict BCS Class, Current Drug Metabolism, 2008, 9, 869-878]
# 1—kinetic solubility is the concentration of a compound in solution at the time when an induced precipitate first appears
# 2—equilibrium solubility (also called thermodynamic solubility) is the concentration of compound in a saturated solution when excess solid is present, and solution and solid are at equilibrium
# 3—intrinsic solubility [Hörter, D.; Dressman, J. B. Adv. Drug Deliv. Rev., 1997, 25, 3-14] is the equilibrium solubility of the free acid or base form of an ionisable compound at a pH where it is fully un-ionized
# The super-saturation ratio is calculated as the ratio of kinetic solubility divided by the Intrinsic Solubility.
# [2] = Aqueous solubility of the free acid versus pH; settings: aqueous buffer
# Excerpt: […]. […] In certain instances, the active agent is initially present at least partly in an ionized form. In certain other instances, the active agent is initially present in an un-ionized form.
# [3] = Wettability: contact angle measurement with water on pressed powder; settings: water, in ° (unit assumed)
# Protocol: Contact angel instrument: EasyDrop DSA15E (Krüss, Hamburg, Germany)
# Syringe: NE44, diameter of needle 0.5 mm (Krüss, Hamburg, Germany)
# The powder was pressed (approx 50 mg powder, 3 tons, 2 min) in tablets and analyzed by contact angle measurement. The angel between the solid and the liquid is measured after 0 and up to 60 seconds using water.
# All determinations used the above method and the limit for the standards measurements are well within the given limits.
# [4] = Supersaturation stabilization experiment with PVP K90 (CheqSol)
# Excerpt: Typically the higher the super saturation, the faster and the more extensive is the precipitation which occurs. On the other hand, higher bioavailability may be achieved by using excipients which interact with the drug in the super-saturated state. In this super-saturated state, precipitation is inhibited and/or delayed, thus leading to higher luminal drug concentrations in vivo of the dissolved drug. […] The present invention thus provides a pharmaceutical composition which achieves higher bioavailability of the drug substance.
# [5] = Saturation solubility, shake-flask with UV quantification; settings: for solubility at 72 h: thermodynamic from solid
# Protocol: The FaSSIF and FeSSIF solutions were prepared using Phares SIF powder according to the formulation instructions and the SGF solution was prepared using the guidelines provided. […] The pH and temperature of the supernatant were measured on a SiriusT3 instrument.
# [6] = pKa, log P and log D of the compound of formula (II)
# Excerpt: The pKa of the compound of formula (II) is about 3.3, with a log P of about 2.5 and log D (pH7.4) of about −1.6.
smiles,measurement,setting,value
"CNc1cc2[nH]c(=O)n(-c3ccc(NC(=O)NS(=O)(=O)c4ccc(Cl)s4)cc3)c(=O)c2cc1F [compound of formula (II), elinogrel]",solubility kinetic,"[1]; kinetic from dmso stock, CheqSol",4.17 µg/mL
same,ratio super saturation,[1]; listed as Free acid,179
same,ratio super saturation,[1]; listed as free acid of formula (II),178
same,solubility,"[1]; thermodynamic from solid, CheqSol",0.0234 µg/mL
same,solubility,"[2]; pH 1.0-7.4, read-out: aqueous solubility of the free acid form",< 100 µg/mL
same,solubility,"[2]; pH 8 or above, read-out: aqueous solubility",≥ 1000 µg/mL
same,Contact angle,[3]; 0 sec,65.9
same,Contact angle,[3]; 30 sec,60.8
same,Contact angle,[3]; 60 sec,60.1
same,stable super-saturation,"[4]; PVP K90 to drug 1:1 by weight, pH>6.0, for 66 hours",17-86 fold
same,concentration in solution with PVP,"[4]; after 67 h with PVP, pH 7.2",860 µg/mL
same,solubility,"[4]; aqueous buffer, pH 6.0, read-out: solubility measured by Sirius CheqSol",9.9 µg/mL
same,solubility at 66 h,"[4]; pH 7.2, aqueous buffer",~170 µg/mL
same,final pH measured of the supernatant,[5]; FaSSIF pH 6.5-1w,6.42
same,final pH measured of the supernatant,[5]; FeSSIF pH 5.0-1w,4.97
same,final pH measured of the supernatant,[5]; Na Phosphate pH 6.8,6.80
same,final pH measured of the supernatant,[5]; Na-Acetate pH 4.5,4.53
same,final pH measured of the supernatant,[5]; SGF pH 2.1,2.21
same,solubility at 72 h,"[5]; aqueous buffer, Na Phosphate pH 6.8, mean N = 2",11.3 µg/mL
same,solubility at 72 h,"[5]; aqueous buffer, Na-Acetate pH 4.5, mean N = 2",0.89 µg/mL
same,solubility at 72 h,"[5]; simulated gastric fluid, SGF pH 2.1, mean N = 2",0.48 µg/mL
same,solubility at 72 h,"[5]; FaSSIF pH 6.5-1w, mean N = 2",25.2 µg/mL
same,solubility at 72 h,"[5]; FeSSIF pH 5.0-1w, mean N = 2",6 µg/mL
same,LogP,[6],~2.5
same,pKa,[6]; first pKa,about 3.3
same,logD,"[6]; pH 7.4, pH7.4",~-1.6
same,pKa,[6]; read-out: second pKa,10.3
